Measurements: ChEMBL document CHEMBL1140526, “Effect of varying the 4''-position of arbekacin derivatives on antibacterial activity against MRSA and Pseudomonas aeruginosa” (2007)
In brackets after ≈: the same amount, converted by molar mass.

Columns and labels:
Format in all cases: functional
Escherichia coli = test: Antibacterial activity against Escherichia coli NIH JC2
Staphylococcus aureus [1] = test: Antibacterial activity against methicillin-resistant Staphylococcus aureus MSC03571
Pseudomonas aeruginosa [2] = test: Antibacterial activity against Pseudomonas aeruginosa PA01
Pseudomonas aeruginosa [3] = test: Antibacterial activity against Pseudomonas aeruginosa GN315
Staphylococcus aureus [4] = test: Antibacterial activity against Staphylococcus aureus 209P JC-1
Pseudomonas aeruginosa [5] = test: Antibacterial activity against Pseudomonas aeruginosa N101
Staphylococcus aureus [6] = test: Antibacterial activity against methicillin-resistant Staphylococcus aureus MF490
Staphylococcus aureus [7] = test: Antibacterial activity against methicillin resistant Staphylococcus aureus isolates
Pseudomonas aeruginosa [8] = test: Antibacterial activity against Pseudomonas aeruginosa isolates

| Compound | MIC (Escherichia coli) | MIC (Staphylococcus aureus [1]) | MIC (Pseudomonas aeruginosa [2]) | MIC (Pseudomonas aeruginosa [3]) | MIC (Staphylococcus aureus [4]) | MIC (Pseudomonas aeruginosa [5]) | MIC (Staphylococcus aureus [6]) | MIC50 (Staphylococcus aureus [7]) | MIC90 (Staphylococcus aureus [7]) | MIC50 (Pseudomonas aeruginosa [8]) | MIC90 (Pseudomonas aeruginosa [8]) |
| --- | --- | --- | --- | --- | --- | --- | --- | --- | --- | --- | --- |
| [N-]=[N+]=N[C@H]1[C@@H](O[C@H]2O[C@H](CO)[C@H](O)[C@H](N)[C@H]2O)[C@H](NC(=O)[C@@H](O)CCN)C[C@H](N)[C@H]1O[C@H]1O[C@H](CN)CC[C@H]1N | 1 µg/mL (≈ 1.73 µM) | 4 µg/mL (≈ 6.92 µM) | 8 µg/mL (≈ 13.8 µM) | 128 µg/mL (≈ 222 µM) | 0.25 µg/mL (≈ 0.433 µM) | 0.5 µg/mL (≈ 0.866 µM) | 4 µg/mL (≈ 6.92 µM) |  |  |  |  |
| NCC[C@H](O)C(=O)N[C@@H]1C[C@H](N)[C@@H](O[C@H]2O[C@H](CN)CC[C@H]2N)[C@@H](N)[C@H]1O[C@H]1O[C@H](CO)[C@H](O)[C@H](N)[C@H]1O | 2 µg/mL (≈ 3.63 µM) | 4 µg/mL (≈ 7.25 µM) | 4 µg/mL (≈ 7.25 µM) | > 64 µg/mL | 0.25 µg/mL (≈ 0.453 µM) | 1 µg/mL (≈ 1.81 µM) | 4 µg/mL (≈ 7.25 µM) |  |  |  |  |
| NCC[C@H](O)C(=O)N[C@@H]1C[C@H](N)[C@@H](O[C@H]2O[C@H](CN)CC[C@H]2N)[C@H](O)[C@H]1O[C@H]1O[C@H](CO)[C@H](N)[C@H](N)[C@H]1O | 16 µg/mL (≈ 29 µM) | > 128 µg/mL | 64 µg/mL (≈ 116 µM) | > 128 µg/mL | 4 µg/mL (≈ 7.25 µM) | 8 µg/mL (≈ 14.5 µM) | > 128 µg/mL |  |  |  |  |
| NCC[C@H](O)C(=O)N[C@@H]1C[C@H](N)[C@@H](O[C@H]2O[C@H](CN)CC[C@H]2N)[C@H](O)[C@H]1O[C@H]1O[C@H](CO)[C@@H](O)[C@H](N)[C@H]1O [ARBEKACIN] | 1 µg/mL (≈ 1.81 µM) | 16 µg/mL (≈ 29 µM) | 2 µg/mL (≈ 3.62 µM) | 16 µg/mL (≈ 29 µM) | 0.06 µg/mL (≈ 0.109 µM) | 0.25 µg/mL (≈ 0.452 µM) | 64 µg/mL (≈ 116 µM) | 0.5 µg/mL (≈ 0.905 µM) | 2 µg/mL (≈ 3.62 µM) | 2 µg/mL (≈ 3.62 µM) | 16 µg/mL (≈ 29 µM) |
| NCC[C@H](O)C(=O)N[C@@H]1C[C@H](N)[C@@H](O[C@H]2O[C@H](CN)CC[C@H]2N)[C@H](O)[C@H]1O[C@H]1O[C@@H](CO)[C@@H](O)[C@H](N)[C@H]1O | 1 µg/mL (≈ 1.81 µM) | 2 µg/mL (≈ 3.62 µM) | 2 µg/mL (≈ 3.62 µM) | 8 µg/mL (≈ 14.5 µM) | 0.06 µg/mL (≈ 0.109 µM) | 0.25 µg/mL (≈ 0.452 µM) | 2 µg/mL (≈ 3.62 µM) |  |  |  |  |
| NCC[C@H](O)C(=O)N[C@@H]1C[C@H](N)[C@@H](O[C@H]2O[C@H](CN)CC[C@H]2N)[C@@H](Cl)[C@H]1O[C@H]1O[C@H](CO)[C@H](O)[C@H](N)[C@H]1O | 1 µg/mL (≈ 1.75 µM) | 2 µg/mL (≈ 3.5 µM) | 4 µg/mL (≈ 7 µM) | > 32 µg/mL | 0.13 µg/mL (≈ 0.228 µM) | 0.5 µg/mL (≈ 0.876 µM) | 2 µg/mL (≈ 3.5 µM) |  |  |  |  |
| NCC[C@H](O)C(=O)N[C@@H]1C[C@H](N)[C@@H](O[C@H]2O[C@H](CN)CC[C@H]2N)[C@@H](O)[C@H]1O[C@H]1O[C@H](CO)[C@H](O)[C@H](N)[C@H]1O | 0.5 µg/mL (≈ 0.905 µM) | 1 µg/mL (≈ 1.81 µM) | 1 µg/mL (≈ 1.81 µM) | 16 µg/mL (≈ 29 µM) | 0.06 µg/mL (≈ 0.109 µM) | 0.25 µg/mL (≈ 0.452 µM) | 1 µg/mL (≈ 1.81 µM) | 0.25 µg/mL (≈ 0.452 µM) | 0.25 µg/mL (≈ 0.452 µM) | 1 µg/mL (≈ 1.81 µM) | 4 µg/mL (≈ 7.24 µM) |
| NCC[C@H](O)C(=O)N[C@@H]1C[C@H](N)[C@@H](O[C@H]2O[C@H](CN)CC[C@H]2N)[C@H](O)[C@H]1O[C@H]1O[C@H](CO)[C@H](O)[C@H](N)[C@H]1O | 1 µg/mL (≈ 1.81 µM) | 16 µg/mL (≈ 29 µM) | 4 µg/mL (≈ 7.24 µM) | 32 µg/mL (≈ 57.9 µM) | 0.13 µg/mL (≈ 0.235 µM) | 0.25 µg/mL (≈ 0.452 µM) | 32 µg/mL (≈ 57.9 µM) |  |  |  |  |
| NCC[C@H](O)C(=O)N[C@@H]1C[C@H](N)[C@@H](O[C@H]2O[C@H](CN)CC[C@H]2N)[C@H](O)[C@H]1O[C@H]1O[C@H](CO)C[C@H](N)[C@H]1O | 2 µg/mL (≈ 3.73 µM) | 64 µg/mL (≈ 119 µM) | 4 µg/mL (≈ 7.45 µM) | 32 µg/mL (≈ 59.6 µM) | 0.13 µg/mL (≈ 0.242 µM) | 0.5 µg/mL (≈ 0.932 µM) | > 64 µg/mL |  |  |  |  |
| CNC[C@@H]1CC[C@@H](N)[C@@H](O[C@H]2[C@@H](O)[C@@H](O[C@H]3O[C@H](CO)[C@H](O)[C@H](N)[C@H]3O)[C@H](NC(=O)[C@@H](O)CCN)C[C@@H]2N)O1 | 1 µg/mL (≈ 1.76 µM) | 1 µg/mL (≈ 1.76 µM) | 2 µg/mL (≈ 3.53 µM) | 4 µg/mL (≈ 7.06 µM) | 0.13 µg/mL (≈ 0.229 µM) | 0.5 µg/mL (≈ 0.882 µM) | 4 µg/mL (≈ 7.06 µM) |  |  |  |  |
| NCC[C@H](O)C(=O)N[C@@H]1C[C@H](N)[C@@H](O[C@H]2O[C@H](CN)CC[C@H]2N)[C@@H](F)[C@H]1O[C@H]1O[C@H](CO)[C@H](O)[C@H](N)[C@H]1O | 1 µg/mL (≈ 1.8 µM) | 2 µg/mL (≈ 3.61 µM) | 2 µg/mL (≈ 3.61 µM) | 32 µg/mL (≈ 57.7 µM) | 0.06 µg/mL (≈ 0.108 µM) | 0.5 µg/mL (≈ 0.902 µM) | 4 µg/mL (≈ 7.21 µM) |  |  |  |  |
| [N-]=[N+]=N[C@@H]1[C@H](N)[C@@H](O)[C@@H](O[C@@H]2[C@@H](O)[C@H](O[C@H]3O[C@H](CN)CC[C@H]3N)[C@@H](N)C[C@H]2NC(=O)[C@@H](O)CCN)O[C@@H]1CO | 2 µg/mL (≈ 3.46 µM) | 128 µg/mL (≈ 222 µM) | 16 µg/mL (≈ 27.7 µM) | 64 µg/mL (≈ 111 µM) | 0.13 µg/mL (≈ 0.225 µM) | 0.5 µg/mL (≈ 0.866 µM) | > 128 µg/mL |  |  |  |  |
